No end group written: not given here.
System: caspases-3, -8, -9, and -2
Experiment: Caspase activity, ApoAlert Caspase profiling plate, MDA-MB-468 sublines
Type: cell-based, human
Details: for caspase-3 activation in EGFP-peptide-expressing cells: MDA-MB-468 sublines vs EGFP vector subline, Figure 7E,F
Description: Our next objective was to analyze the biological significance of the CARP-1–H2AX interaction in cells. For this purpose, we utilized MDA-MB-468 and HeLa cell lines that stably express myc-His-tagged wild-type CARP-1 or CARP-1 (Δ600–650)-myc-His proteins as detailed in Figure S4 (Supplementary Materials). These sublines were then either untreated (Control, DMSO), or treated with Adriamycin or CFM-4 compound. […] Next, we measured activation of caspases as an apoptosis readout in cells expressing myc-His-tagged wild-type CARP-1 or CARP-1 (Δ600–650) proteins that were either untreated or treated with Adriamycin or CFM compounds as detailed in Section 2. We utilized a lower, 4–5 μM dose of Adriamycin or CFM compounds because a 10 μM Adriamycin dose caused interference in signal output/readout in this particular assay, likely due to background fluorescence that is emitted by higher dose of Adriamycin. Although Adriamycin has a maximum excitation and emission wavelength of 470 and 560 nm, respectively, we found significant fluorescence emission in cells treated with 10 μM Adriamycin at a 380-nm excitation wavelength. Moreover, since caspase activation precedes apoptotic cell death, we utilized a lower dose of Adriamycin to permit a robust measurement of optimal caspase activation in cells undergoing moderate apoptosis with lower/minimal interference by Adriamycin-induced fluorescence signals. […] MDA-MB-468 or HeLa cells that express EGFP or EGFP-H2AX (1–35) were separately treated with Adriamycin, and presence of CARP-1 and γH2AX was determined by immuno-cytochemical staining followed by photography by a confocal microscope as described in Section 2. […]
Figure 7 Disruption of H2AX interaction with CARP-1 results in enhanced viabilities of CFM-4-, CFM-4.16-, or Adriamycin-treated cells in part due to reduced apoptosis. […] The fluorescence released from the activated caspase-dependent cleavage of respective substrate was detected by a plate reader at the excitation and emission wavelengths of 380 nm and 460 nm, respectively, as detailed in Section 2. […]

| Molecule | caspase activation in CARP-1 (Δ600–650) cells (4–5 μM, CARP-1 (Δ600–650) vs wild-type CARP-1-expressing cells, mean of two experiments, 380/460 nm) | caspase-3 activation in EGFP-peptide-expressing cells |
| --- | --- | --- |
| COc1cccc2c1C(=O)c1c(O)c3c(c(O)c1C2=O)C[C@@](O)(C(=O)CO)C[C@@H]3O[C@H]1C[C@H](N)[C@H](O)[C@H](C)O1 [Adriamycin, doxorubicin, reference compound] | overall reduction in activation of caspases-3, -8, -9, and -2 |  |
| EGFP-CARP-1 (636–650): EGFP-tagged fusion protein stably expressed in MDA-MB-468 and HeLa sublines (PKTMKVNDLRKELES; also: EGFP fusion kept, end not given here) |  | overall reduction in activation of caspase-3 |
| EGFP-H2AX (1–35): EGFP-tagged fusion protein stably expressed in MDA-MB-468 and HeLa sublines (MSGRGKTGGKARAKAKSRSSRAGLQFPVGRVHRLL; also: EGFP fusion, end not given here; UniProt P16104 1-35, looked up, fragment) |  | overall reduction in activation of caspase-3 |

Source: article PMC6406907, “A H2AX–CARP-1 Interaction Regulates Apoptosis Signaling Following DNA Damage” (Cancers, 2019)
